Data: patent publication US20250296948A1, “SYNTHESIS OF NUCLEOSIDE DERIVATIVES” (Nucana plc, priority 2022, published 2025)

Experiments:
Format in all cases: physicochemical
[1] = 6 month dry powder stability, Alpha Naphthol content by HPLC
Source text: (§1) NUC-3373 prepared according to Example 3 and Comparative Example 4 was packed into a transparent LDPE bag which was then filled with nitrogen and tied with a strip seal. This bag was then placed into another transparent LDPE bag which was also filled with nitrogen. A silica gel packet was placed between the two bags before the outermost bag was tied with a strip seal. These bags were then placed in a triple laminated sun light barrier bag which was sealed with a heat sealer. The bags were kept in a HDPE container.
(§2) NUC-3373 was initially assayed by HPLC after manufacture (0 months) then after 1 and 2 and/or 3 and 6 months of storage at 2-8° C., 25° C. or 40° C.
The Alpha Naphthol content of the same batches was also determined by HPLC. The levels of the alpha naphthol impurity is a key indicator of stability of the tested material.

[2] = Solution stability, alpha naphthol (0.60 RRT) in DMA:Saline (80:20 v/v); parameters: 0.60 RRT (Alpha Naphthol): unit not given here; details: 400 mg/mL in DMA:Saline (80:20 v/v)
Procedure: Stability data is also provided in Table 4, which compares the levels of alpha naphthol (0.60 RRT) present in solutions of 400 mg/mL NUC-3373, prepared by Example 3 or 4, above, in DMA:Saline (80:20 v/v) at different temperatures measured over set periods of time. The tested solutions are suitable for infusion and injection and the temperatures and times measured are representative of the environments that solutions suitable for infusion and injection would typically be stored in.
In Table 4 the two values provided for each temperature at each time period, separated by “/”, represent different preparations (samples) of that synthesis.

[3] = 6 month dry powder stability, HPLC assay
Source text: as §1, §2

C[C@H](NP(=O)(OC[C@H]1O[C@@H](n2cc(F)c(=O)[nH]c2=O)CC1O)Oc1cccc2ccccc12)C(=O)OCc1ccccc1 (stereo partly drawn) [Example 3, Batch 1, 5-fluoro-2′-deoxyuridine-5′-O-[1-naphthyl (benzoxy-L-alaninyl)] phosphate]
Increase after 6 months, Alpha Naphthol by HPLC ([1]; 2-8 ° C.): None | Alpha Naphthol by HPLC (% w/w) ([1]; 2-8 ° C., 0 months): 0.15 % w/w | Alpha Naphthol by HPLC (% w/w) ([1]; 2-8 ° C., 3 months): 0.16 % w/w | Alpha Naphthol by HPLC (% w/w) ([1]; 2-8 ° C., 6 months): 0.15 % w/w | Increase after 6 months, Alpha Naphthol by HPLC ([1]; 25 ° C.): None | Alpha Naphthol by HPLC (% w/w) ([1]; 25 ° C., 0 months): 0.15 % w/w | Alpha Naphthol by HPLC (% w/w) ([1]; 25 ° C., 3 months): 0.15 % w/w | Alpha Naphthol by HPLC (% w/w) ([1]; 25 ° C., 6 months): 0.14 % w/w | Increase after 6 months, Alpha Naphthol by HPLC ([1]; 40 ° C.): None | Alpha Naphthol by HPLC (% w/w) ([1]; 40 ° C., 0 months): 0.15 % w/w | Alpha Naphthol by HPLC (% w/w) ([1]; 40 ° C., 1 month): 0.15 % w/w | Alpha Naphthol by HPLC (% w/w) ([1]; 40 ° C., 2 months): 0.15 % w/w | Alpha Naphthol by HPLC (% w/w) ([1]; 40 ° C., 3 months): 0.14 % w/w | Alpha Naphthol by HPLC (% w/w) ([1]; 40 ° C., 6 months): 0.13 % w/w | 0.60 RRT (Alpha Naphthol) ([2]; After 1 month at 2-8° C., first preparation (before "/")): 0.07/0.07 | 0.60 RRT (Alpha Naphthol) ([2]; After 1 month at 2-8° C., second preparation (after "/")): 0.07/0.07 | 0.60 RRT (Alpha Naphthol) ([2]; After 1 month at 25 ± 5° C., first preparation (before "/")): 0.08/0.08 | 0.60 RRT (Alpha Naphthol) ([2]; After 1 month at 25 ± 5° C., second preparation (after "/")): 0.08/0.08 | 0.60 RRT (Alpha Naphthol) ([2]; After 3 months at 2-8° C., first preparation (before "/")): 0.07/0.07 | 0.60 RRT (Alpha Naphthol) ([2]; After 3 months at 2-8° C., second preparation (after "/")): 0.07/0.07 | 0.60 RRT (Alpha Naphthol) ([2]; After 3 months at 25 ± 5° C., first preparation (before "/")): 0.10 | 0.60 RRT (Alpha Naphthol) ([2]; After 3 months at 25 ± 5° C., second preparation (after "/")): 0.11 | 0.60 RRT (Alpha Naphthol) ([2]; After 6 months at 2-8° C., first preparation (before "/")): 0.07 | 0.60 RRT (Alpha Naphthol) ([2]; After 6 months at 2-8° C., second preparation (after "/")): 0.08 | 0.60 RRT (Alpha Naphthol) ([2]; After 6 months at 25 ± 5° C., first preparation (before "/")): 0.20 | 0.60 RRT (Alpha Naphthol) ([2]; After 6 months at 25 ± 5° C., second preparation (after "/")): 0.22 | 0.60 RRT (Alpha Naphthol) ([2]; After 9 months at 2-8° C., first preparation (before "/")): 0.07 | 0.60 RRT (Alpha Naphthol) ([2]; After 9 months at 2-8° C., second preparation (after "/")): 0.08 | 0.60 RRT (Alpha Naphthol) ([2]; After 9 months at 25 ± 5° C., first preparation (before "/")): 0.42 | 0.60 RRT (Alpha Naphthol) ([2]; After 9 months at 25 ± 5° C., second preparation (after "/")): 0.38 | 0.60 RRT (Alpha Naphthol) ([2]; After 15 days at 2-8° C., first preparation (before "/")): 0.07/0.07 | 0.60 RRT (Alpha Naphthol) ([2]; After 15 days at 2-8° C., second preparation (after "/")): 0.07/0.07 | 0.60 RRT (Alpha Naphthol) ([2]; After 15 days at 25 ± 5° C., first preparation (before "/")): 0.07 | 0.60 RRT (Alpha Naphthol) ([2]; After 15 days at 25 ± 5° C., second preparation (after "/")): 0.08 | 0.60 RRT (Alpha Naphthol) ([2]; Initial): 0.07 | Decrease after 6 months, HPLC assay ([3]; 2-8 ° C.): None | HPLC assay (% w/w on anhydrous and solvent free basis) ([3]; 2-8 ° C., 0 months): 100.4 % w/w | HPLC assay (% w/w on anhydrous and solvent free basis) ([3]; 2-8 ° C., 3 months): 101.5 % w/w | HPLC assay (% w/w on anhydrous and solvent free basis) ([3]; 2-8 ° C., 6 months): 100.4 % w/w | Decrease after 6 months, HPLC assay ([3]; 25 ° C.): None | HPLC assay (% w/w on anhydrous and solvent free basis) ([3]; 25 ° C., 0 months): 100.4 % w/w | HPLC assay (% w/w on anhydrous and solvent free basis) ([3]; 25 ° C., 3 months): 101.1 % w/w | HPLC assay (% w/w on anhydrous and solvent free basis) ([3]; 25 ° C., 6 months): 100.8 % w/w | Decrease after 6 months, HPLC assay ([3]; 40 ° C.): None | HPLC assay (% w/w on anhydrous and solvent free basis) ([3]; 40 ° C., 0 months): 100.4 % w/w | HPLC assay (% w/w on anhydrous and solvent free basis) ([3]; 40 ° C., 1 month): 100.0 % w/w | HPLC assay (% w/w on anhydrous and solvent free basis) ([3]; 40 ° C., 2 months): 101.5 % w/w | HPLC assay (% w/w on anhydrous and solvent free basis) ([3]; 40 ° C., 3 months): 101.6 % w/w | HPLC assay (% w/w on anhydrous and solvent free basis) ([3]; 40 ° C., 6 months): 100.7 % w/w

C[C@H](NP(=O)(OC[C@H]1O[C@@H](n2cc(F)c(=O)[nH]c2=O)CC1O)Oc1cccc2ccccc12)C(=O)OCc1ccccc1 (stereo partly drawn) [Example 3, Batch 3, 5-fluoro-2′-deoxyuridine-5′-O-[1-naphthyl (benzoxy-L-alaninyl)] phosphate]
Increase after 6 months, Alpha Naphthol by HPLC ([1]; 2-8 ° C.): None | Alpha Naphthol by HPLC (% w/w) ([1]; 2-8 ° C., 0 months): 0.18 % w/w | Alpha Naphthol by HPLC (% w/w) ([1]; 2-8 ° C., 3 months): 0.18 % w/w | Alpha Naphthol by HPLC (% w/w) ([1]; 2-8 ° C., 6 months): 0.17 % w/w | Increase after 6 months, Alpha Naphthol by HPLC ([1]; 25 ° C.): None | Alpha Naphthol by HPLC (% w/w) ([1]; 25 ° C., 0 months): 0.18 % w/w | Alpha Naphthol by HPLC (% w/w) ([1]; 25 ° C., 3 months): 0.18 % w/w | Alpha Naphthol by HPLC (% w/w) ([1]; 25 ° C., 6 months): 0.17 % w/w | Increase after 6 months, Alpha Naphthol by HPLC ([1]; 40 ° C.): None | Alpha Naphthol by HPLC (% w/w) ([1]; 40 ° C., 0 months): 0.18 % w/w | Alpha Naphthol by HPLC (% w/w) ([1]; 40 ° C., 1 month): 0.17 % w/w | Alpha Naphthol by HPLC (% w/w) ([1]; 40 ° C., 2 months): 0.17 % w/w | Alpha Naphthol by HPLC (% w/w) ([1]; 40 ° C., 3 months): 0.17 % w/w | Alpha Naphthol by HPLC (% w/w) ([1]; 40 ° C., 6 months): 0.15 % w/w | Decrease after 6 months, HPLC assay ([3]; 2-8 ° C.): None | HPLC assay (% w/w on anhydrous and solvent free basis) ([3]; 2-8 ° C., 0 months): 100.3 % w/w | HPLC assay (% w/w on anhydrous and solvent free basis) ([3]; 2-8 ° C., 3 months): 101.9 % w/w | HPLC assay (% w/w on anhydrous and solvent free basis) ([3]; 2-8 ° C., 6 months): 100.5 % w/w | Decrease after 6 months, HPLC assay ([3]; 25 ° C.): None | HPLC assay (% w/w on anhydrous and solvent free basis) ([3]; 25 ° C., 0 months): 100.3 % w/w | HPLC assay (% w/w on anhydrous and solvent free basis) ([3]; 25 ° C., 3 months): 101.8 % w/w | HPLC assay (% w/w on anhydrous and solvent free basis) ([3]; 25 ° C., 6 months): 101.0 % w/w | Decrease after 6 months, HPLC assay ([3]; 40 ° C.): None | HPLC assay (% w/w on anhydrous and solvent free basis) ([3]; 40 ° C., 0 months): 100.3 % w/w | HPLC assay (% w/w on anhydrous and solvent free basis) ([3]; 40 ° C., 1 month): 100.6 % w/w | HPLC assay (% w/w on anhydrous and solvent free basis) ([3]; 40 ° C., 2 months): 101.5 % w/w | HPLC assay (% w/w on anhydrous and solvent free basis) ([3]; 40 ° C., 3 months): 102.2 % w/w | HPLC assay (% w/w on anhydrous and solvent free basis) ([3]; 40 ° C., 6 months): 100.8 % w/w
